Data published in US9468610B2, “1-aminocyclohexane derivatives for the treatment of hearing loss” (MERZ PHARMA GmbH & CO. KGaA, priority 2007, dated 2016).

Key:
[1] = system: subjects with diagnosed hearing loss; assay: Double blind placebo controlled pilot trial of neramexane for treatment of hearing loss (Example 1); format: in vivo, human; conditions: neramexane mesylate up to 75 mg/day, modified release tablets, 16 weeks, versus placebo
Protocol: A hearing threshold level may be defined as the average of the pure tone hearing threshold levels at testing frequencies of 0.25, 0.5, 1, 2 and 4 kHz.
The primary objective of this study is to investigate the safety and efficacy of neramexane mesylate at daily doses of up to 75 mg in the treatment of hearing loss in comparison to placebo.
In order to be eligible to participate in the study, patients must meet the following criteria: • Male or female subjects aged between 18 and 80 years with diagnosed hearing loss of at least mild degree • Signed written informed consent • Female subjects must be at least 2 years post-menopausal or surgically sterile. Women of childbearing potential have to agree to use at least one effective method of contraception.
Visit 1 (screening): After signing the consent form, the subject undergoes a neurological and otological evaluation. […] Patient eligibility for study is evaluated via a check of inclusion/exclusion criteria.
Visit 2 (baseline): The subjects are asked about adverse events and changes in concomitant medication/disease, which events/changes are documented. Subject is evaluated for study eligibility based on a review of the inclusion/exclusion criteria. […]
Primary Outcome • Change from baseline in hearing threshold level of left/right ear (dB) calculated as average of the pure tone hearing level threshold levels at 0.25, 0.5, 1, 2 and 4 kHz. […]

[2] = system: patients suffering from persistent, subjective uni- or bilateral tinnitus; assay: Double-blind, multicenter, randomized, placebo-controlled, parallel-group study in tinnitus patients; pure tone audiogram (Example 2); format: in vivo, human; conditions: 50 mg-dose group (25 mg immediate release tablets twice daily), after 16 weeks treatment, compared to placebo; FIG. 1
Protocol: Participants received either neramexane mesylate (e.g. 50 mg, as 25 mg immediate release tablets given twice daily) or placebo twice daily for 16 weeks. Neramexane mesylate was uptitrated in weekly steps of 12.5 or 25 mg during a 4-week uptitration period preceding the fixed-dose 12-week treatment period. Treatment was followed by a four week follow-up period.

In the case of CC1(C)CC(C)(C)CC(C)(N)C1 [neramexane, 1-amino-1,3,3,5,5-pentamethylcyclohexane], the “Secondary outcomes: high frequency hearing threshold, individual frequencies, responders, patient-reported outcome, hearing impairment grade” value [1] is reported as “improvement”, the “Primary outcomes: change from baseline in hearing threshold level of left/right ear” value ([1]; average of pure tone thresholds at 0.25, 0.5, 1, 2 and 4 kHz) is reported as “improvement” and the “Individual frequencies (hearing thresholds) on a pure tone audiogram (air conduction), secondary efficacy analysis” value [2] is reported as “trend for a modest treatment effect compared to placebo”.
